# Counter-ions that a name gives are not always drawn. Like-named read-outs stand apart in the source and are kept apart here.
# Tests used:
# [1] = WST-1 cytotoxicity, wildtype U2OS cells; settings: human, wildtype U2OS cells
# in vitro = settings: human, U2OS-HA-hNTCP cells
# human NTCP [2] = biological target: T1, human NTCP (Homo sapiens, UniProt Q14973); experiment: Screening taurocholate uptake assay (96-well, [14C]taurocholate, 10 µM drug)
# T1 sequence (Q14973 1-349): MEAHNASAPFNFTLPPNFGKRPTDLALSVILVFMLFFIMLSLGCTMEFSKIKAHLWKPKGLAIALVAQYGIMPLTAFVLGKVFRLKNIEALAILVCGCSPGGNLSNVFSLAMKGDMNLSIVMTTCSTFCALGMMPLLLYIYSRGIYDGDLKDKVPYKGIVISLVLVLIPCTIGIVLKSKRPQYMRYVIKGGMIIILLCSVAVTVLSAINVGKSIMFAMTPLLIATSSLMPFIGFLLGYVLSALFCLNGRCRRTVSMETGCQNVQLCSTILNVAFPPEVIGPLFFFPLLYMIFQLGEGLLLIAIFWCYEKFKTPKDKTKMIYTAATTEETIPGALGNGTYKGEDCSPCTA
# human NTCP [3] = biological target: T1, human NTCP; experiment: Screening fluorescent competitive Myrcludex B-FITC binding assay (96-well, 10 µM drug)
# [4] = Prestwick library screen, taurocholate uptake, 10 µM drug
# [5] = ranking score beside the functional and binding assay B-scores of the screen
# [6] = Prestwick library screen, Myrcludex B-FITC binding, 10 µM drug
# [7] = combined ranking from functional and binding screening assays
# [8] = screen, 10 µM drug, taurocholate uptake
# [9] = screen, 10 µM drug, Myrcludex B-FITC binding
# [10] = Prestwick library screen, 10 µM drug, B-score of taurocholate uptake
# [11] = combined ranking from functional and binding assay B-scores
# [12] = Prestwick library screen, 10 µM drug, B-score of Myrcludex B-FITC binding
smiles,measurement,setting,value
CC(C)c1ccc2oc3nc(N)c(C(=O)O)cc3c(=O)c2c1 [Amlexanox],"viability at 2 h, 1 µM",[1],88.2 ± 9.6%
same,"viability at 2 h, 10 µM",[1],94.8 ± 13.8%
same,"viability at 2 h, 100 µM",[1],77.3 ± 5.6%
same,"viability at 2 h, 1 µM",in vitro,99.6 ± 6.1%
same,"viability at 2 h, 10 µM",in vitro,102 ± 18.9%
same,"viability at 2 h, 100 µM",in vitro,92.7 ± 17.8%
C#CCN(C)Cc1ccccc1 [Pargyline hydrochloride],B-score functional assay,human NTCP [2]; [4],-0.107
same,Ranking score,human NTCP [2]; [5],685.259
same,B-score binding assay,human NTCP [3]; [6],0.419
CC(=O)OCC(=O)[C@@]1(OC(C)=O)[C@@H](C)C[C@H]2[C@@H]3C[C@H](F)C4=CC(=O)C=C[C@]4(C)[C@@]3(F)[C@@H](O)C[C@@]21C [Diflorasone Diacetate],Ranking score,human NTCP [2]; [7],327.658
same,B-score functional assay,human NTCP [2]; [8],-0.194
same,B-score binding assay,human NTCP [3]; [9],-1.118
O=C(NCCNCC(O)COc1ccc(O)cc1)N1CCOCC1 (stereo not drawn) [Xamoterol hemifumarate],B-score functional assay,human NTCP [2],0.875
same,Ranking score,human NTCP [2],564.879
same,B-score binding assay,human NTCP [3],-0.721
CC[N+](C)(C)c1cccc(O)c1 [Edrophonium chloride],Ranking score,human NTCP [2]; [7],420.888
same,B-score functional assay,human NTCP [2]; [8],-1.061
same,B-score binding assay,human NTCP [3]; [9],0.083
Cc1noc(NS(=O)(=O)c2ccc(N)cc2)c1C [Sulfisoxazole],B-score functional assay,human NTCP [2]; [4],-0.089
same,Ranking score,human NTCP [2]; [5],663.513
same,B-score binding assay,human NTCP [3]; [6],0.207
Cl.O=C(O)/C=C/c1ccc(Cn2ccnc2)cc1 [Ozagrel hydrochloride],B-score functional assay,human NTCP [2]; [10],1.392
same,Ranking score,human NTCP [2]; [11],1118.41
same,B-score binding assay,human NTCP [3]; [12],1.332
CN(C)CCCN1c2ccccc2Sc2ccc(C(F)(F)F)cc21 [Triflupromazine hydrochloride],Ranking score,human NTCP [2]; [7],447.888
same,B-score functional assay,human NTCP [2]; [8],-0.264
same,B-score binding assay,human NTCP [3]; [9],-0.314
Oc1ccc2c3c1O[C@H]1[C@@H](O)CC[C@@]4(O)[C@@H](C2)N(CC2CCC2)CC[C@]314 [Nalbuphine hydrochloride],B-score functional assay,human NTCP [2],-1.445
same,Ranking score,human NTCP [2],312.49
same,B-score binding assay,human NTCP [3],-0.132
CN1CCC(=C2c3ccccc3CCc3cccnc32)CC1 [Azatadine maleate],B-score functional assay,human NTCP [2]; [10],0.678
same,Ranking score,human NTCP [2]; [11],1070.86
same,B-score binding assay,human NTCP [3]; [12],1.844
C#C[C@]1(O)CC[C@H]2[C@@H]3[C@H](C)CC4=C(CCC(=O)C4)[C@H]3CC[C@@]21C [Tibolone],B-score functional assay,human NTCP [2]; [10],0.613
same,Ranking score,human NTCP [2]; [11],930.923
same,B-score binding assay,human NTCP [3]; [12],0.535
Cc1cc(C(C)(C)C)cc(C)c1CC1=NCCN1 [Xylometazoline hydrochloride],Ranking score,human NTCP [2]; [7],287.23
same,B-score functional assay,human NTCP [2]; [8],-0.462
same,B-score binding assay,human NTCP [3]; [9],-1.17
[H]/N=C(\N/C(=N/[H])Nc1ccc(Cl)cc1)NC(C)C [Proguanil hydrochloride],Ranking score,human NTCP [2]; [7],309.176
same,B-score functional assay,human NTCP [2]; [8],-0.025
same,B-score binding assay,human NTCP [3]; [9],-1.489
CC(=O)/N=c1/sc(S(N)(=O)=O)nn1C [Methazolamide],B-score functional assay,human NTCP [2]; [10],2.368
same,Ranking score,human NTCP [2]; [11],849.129
same,B-score binding assay,human NTCP [3]; [12],-0.041
C[C@]12C=CC(=O)C=C1CC[C@@H]1[C@@H]2C(=O)C[C@@]2(C)[C@H]1CC[C@]2(O)C(=O)CO [Prednisone],Ranking score,human NTCP [2]; [7],427.034
same,B-score functional assay,human NTCP [2]; [8],-1.367
same,B-score binding assay,human NTCP [3]; [9],0.54
CC(C)(C)NC(=O)[C@H]1CC[C@H]2[C@@H]3CC[C@H]4NC(=O)C=C[C@]4(C)[C@H]3CC[C@]12C [Finasteride],Ranking score,human NTCP [2]; [7],406.586
same,B-score functional assay,human NTCP [2]; [8],-1.623
same,B-score binding assay,human NTCP [3]; [9],0.768
NCCCC[C@H](N[C@@H](CCc1ccccc1)C(=O)O)C(=O)N1CCC[C@H]1C(=O)O [Lisinopril],Ranking score,human NTCP [2]; [7],445.618
same,B-score functional assay,human NTCP [2]; [8],1.757
same,B-score binding assay,human NTCP [3]; [9],-1.412
COC(=O)C1=C(C)NC(C)=C(C(=O)O[C@@H]2CCCN(Cc3ccccc3)C2)[C@@H]1c1cccc([N+](=O)[O-])c1.Cl (racemic) [Benidipine hydrochloride],Ranking score,human NTCP [2]; [7],426.727
same,B-score functional assay,human NTCP [2]; [8],-0.759
same,B-score binding assay,human NTCP [3]; [9],-0.032
Nc1[nH]c(=O)ncc1F [Flucytosine],Ranking score,human NTCP [2]; [7],352.224
same,B-score functional assay,human NTCP [2]; [8],-1.554
same,B-score binding assay,human NTCP [3]; [9],0.063
CC(C)(C(=O)c1cccnc1)c1cccnc1 [Metyrapone],B-score functional assay,human NTCP [2]; [4],0.78
same,Ranking score,human NTCP [2]; [5],759.235
same,B-score binding assay,human NTCP [3]; [6],-0.063
Cc1cc2c(s1)Nc1ccccc1N=C2N1CCN(C)CC1 [Olanzapine],B-score functional assay,human NTCP [2]; [10],0.458
same,Ranking score,human NTCP [2]; [11],1041.63
same,B-score binding assay,human NTCP [3]; [12],2.253
CC(COc1ccccc1)NC(C)C(O)c1ccc(O)cc1 (stereo not drawn) [Isoxsuprine hydrochloride],B-score functional assay,human NTCP [2]; [10],0.459
same,Ranking score,human NTCP [2]; [11],888.476
same,B-score binding assay,human NTCP [3]; [12],0.408
CC(N)C12CC3CC(CC(C3)C1)C2 (stereo not drawn) [Rimantadine Hydrochloride],B-score functional assay,human NTCP [2]; [4],0.074
same,Ranking score,human NTCP [2]; [5],753.923
same,B-score binding assay,human NTCP [3]; [6],0.171
CC(=O)c1ccc2c(c1)N(CCCN(C)C)c1ccccc1S2.O=C(O)/C=C\C(=O)O [Acetopromazine maleate salt],Ranking score,human NTCP [2]; [7],331.723
same,B-score functional assay,human NTCP [2]; [8],0.92
same,B-score binding assay,human NTCP [3]; [9],-2.054
Cl.Clc1ccc(Cn2c(CN3CCCC3)nc3ccccc32)cc1 [Clemizole hydrochloride],Ranking score,human NTCP [2]; [7],418.626
same,B-score functional assay,human NTCP [2]; [8],2.268
same,B-score binding assay,human NTCP [3]; [9],-1.618
CC(Oc1ccccc1)C(=O)N[C@@H]1C(=O)N2[C@@H]1SC(C)(C)[C@@H]2C(=O)[O-].[K+] (stereo partly drawn) [Phenethicillin potassium salt],Ranking score,human NTCP [2]; [7],437.958
same,B-score functional assay,human NTCP [2]; [8],-0.676
same,B-score binding assay,human NTCP [3]; [9],-0.048
NS(=O)(=O)c1cc2c(cc1Cl)N=C(CSCc1ccccc1)NS2(=O)=O [Benzthiazide],B-score functional assay,human NTCP [2]; [4],-0.047
same,Ranking score,human NTCP [2]; [5],714.84
same,B-score binding assay,human NTCP [3]; [6],0.39
COc1ccccc1Oc1c(NS(=O)(=O)c2ccc(C(C)(C)C)cc2)nc(-c2ncccn2)nc1OCCO [Bosentan],B-score functional assay,human NTCP [2]; [4],0.07
same,Ranking score,human NTCP [2]; [5],688.78
same,B-score binding assay,human NTCP [3]; [6],0.008
NNCCc1ccccc1 [Phenelzine sulfate],Ranking score,human NTCP [2]; [7],418.784
same,B-score functional assay,human NTCP [2]; [8],-0.221
same,B-score binding assay,human NTCP [3]; [9],-0.533
CC(=O)Oc1ccccc1C(=O)Oc1ccccc1C(=O)O [Acetylsalicylsalicylic acid],B-score functional assay,human NTCP [2]; [4],0.347
same,Ranking score,human NTCP [2]; [5],734.743
same,B-score binding assay,human NTCP [3]; [6],-0.007
Cc1cc(C2CCCCC2)n(O)c(=O)c1.NCCO [Ciclopirox ethanolamine],B-score functional assay,human NTCP [2]; [10],0.776
same,Ranking score,human NTCP [2]; [11],1078.72
same,B-score binding assay,human NTCP [3]; [12],1.631
C[C@]12CCC(=O)C(O)=C1CC[C@@H]1[C@@H]2CC[C@]2(C)C(=O)CC[C@@H]12 [Formestane],B-score functional assay,human NTCP [2],-0.613
same,Ranking score,human NTCP [2],420.899
same,B-score binding assay,human NTCP [3],-0.147
OC(CCCN1CCCCC1)(c1ccccc1)c1ccccc1 [Diphenidol hydrochloride],Ranking score,human NTCP [2]; [7],367.214
same,B-score functional assay,human NTCP [2]; [8],-1.4
same,B-score binding assay,human NTCP [3]; [9],0.054
N=C(N)NC(=O)c1nc(Cl)c(N)nc1N [Amiloride hydrochloride dihydrate],Ranking score,human NTCP [2]; [7],420.464
same,B-score functional assay,human NTCP [2]; [8],-1.628
same,B-score binding assay,human NTCP [3]; [9],1.12
CC(=O)[C@H]1CC[C@H]2[C@@H]3CC=C4C[C@@H](O)CC[C@]4(C)[C@H]3CC[C@]12C [Pregnenolone],Ranking score,human NTCP [2]; [7],297.104
same,B-score functional assay,human NTCP [2]; [8],-2.394
same,B-score binding assay,human NTCP [3]; [9],0.35

# From paper PMC5681660, “Reduced hepatitis B and D viral entry using clinically applied drugs as novel inhibitors of the bile acid transporter NTCP” (Scientific Reports, 2017)
